Reference: ChEMBL document CHEMBL6109128, “Copper-KRAS-COX2 Axis: A Therapeutic Vulnerability in Pancreatic Cancer” (J Med Chem, 2025)
The source made the active and inactive calls. The rule behind the calls is not given here.

How the values were obtained:
MIA PaCa-2 [1] = assay: Cytotoxicity against human MIA PaCa-2 cells by MTT assay; type: functional, cell-based
[2] = Metabolic stability in mouse liver microsome assessed as half life measured up to 60 mins by LC-MS/MS analysis; type: ADME; details: liver microsomes
[3] = Metabolic stability in human liver microsome assessed as half life measured up to 60 mins by LC-MS/MS analysis; type: ADME; details: liver microsomes
[4] = Cytotoxicity against mouse KPC2 cells by MTT assay; type: functional, cell-based
SU.86.86 = assay: Cytotoxicity against human SU-86-86 cells by MTT assay; type: functional, cell-based
PANC-1 = assay: Cytotoxicity against human PANC-1 cells by MTT assay; type: functional, cell-based
MIA PaCa-2 [5] = assay: Cytotoxicity against human MIA PaCa-2 cells assessed as cell death up to 0.1 uM incubated for 6 days in presence of NAC; type: functional, cell-based; details: time 6.0 day
Panc02 = assay: Cytotoxicity against mouse Panc02 cells by MTT assay; type: functional, cell-based
BXPC-3 = assay: Cytotoxicity against human BXPC-3 cells by MTT assay; type: functional, cell-based
HCT-116 = assay: Cytotoxicity against human HCT-116 cells assessed as cell death up to 1 uM incubated for 6 days in presence of NAC; type: functional, cell-based; details: time 6.0 day
[6] = Drug metabolism in mouse plasma assessed as 5-(5-methyl-2,5-diazabicyclo[2.2.1]hept-3-en-2-yl)pyrazine-2-carbaldehyde metabolite formation by measuring Retention time measured after 1 hr by LC-MS/MS analysis; type: ADME, cell-free
[7] = Drug metabolism in mouse plasma assessed as 6-fluoro-8-isocyanatoquinoline metabolite formation by measuring Retention time measured after 1 hr by LC-MS/MS analysis; type: ADME, cell-free
[8] = Drug metabolism in mouse plasma assessed as 5-(5-((6-fluoroquinolin-8-yl)carbamoyl)pyrazin-2-yl)-2-methyl-2,5-diazabicyclo[2.2.1]heptane 2-oxide metabolite formation by measuring Retention time measured after 1 hr by LC-MS/MS analysis; type: ADME, cell-free
[9] = Drug metabolism in mouse plasma assessed as 6-fluoroquinolin-8-amine metabolite formation by measuring Retention time measured after 1 hr by LC-MS/MS analysis; type: ADME, cell-free
[10] = Drug metabolism in mouse plasma assessed as 5-(2,5-diazabicyclo[2.2.1]heptan-2-yl)-N-(6-fluoroquinolin-8-yl)pyrazine-2-carboxamide metabolite formation by measuring Retention time measured after 1 hr by LC-MS/MS analysis; type: ADME, cell-free
[11] = Drug metabolism in mouse plasma assessed as retention time measured after 1 hr by LC-MS/MS analysis; type: ADME, cell-free
[12] = Toxicity in C57BL/6 mouse assessed as body weight loss at 20 to 40 mg/kg, ip administered for 28 days; type: organism-based; details: in vivo, 672 h, dose 20-40 mg/kg, time 28 day

SMILES | IC50 (MIA PaCa-2 [1]) | other results
Cc1cc(NC(=O)c2cnc(N3CCN(S(C)(=O)=O)CC3)cn2)c2ncccc2c1 | 1000 nM | 
O=C(Nc1cc(F)cc2cccnc12)c1cnc(N2CCn3c(nnc3C(F)(F)F)C2)cn1 | 4100 nM | 
Cc1cc(NC(=O)c2ccc(N3CCN(C)CC3)cc2)c2ncccc2c1 | 25800 nM | 
N[C@H]1CN(c2cnc(C(=O)Nc3cc(F)cc4cccnc34)cn2)C[C@H]1F | 300 nM | half-life [2]: > 60 min; half-life [3]: > 60 min
N[C@@H]1CCCC12CCN(c1cnc(C(=O)Nc3cc(F)cc4cccnc34)cn1)CC2 | 1500 nM | 
O=C(Nc1cc(F)cc2cccnc12)c1cnc(N2CCC(F)C2)cn1 (configuration not stated) | 2800 nM | 
CN(NC(=O)CC(=O)NN(C)C(=S)c1ccccc1)C(=S)c1ccccc1 [ELESCLOMOL] | 20 nM | IC50 [4]: 200 nM; IC50 (SU.86.86): 20 nM; IC50 (PANC-1): 30 nM; Activity (MIA PaCa-2 [5]): Active; IC50 (Panc02): 10 nM; IC50 (BXPC-3): 50 nM
N[C@@H]1CCN(c2cnc(C(=O)Nc3cc(F)cc4cccnc34)cn2)C[C@@H]1F | 1100 nM | 
CCN(CC)C(=S)SSC(=S)N(CC)CC [DISULFIRAM] | 100 nM | IC50 [4]: 200 nM; IC50 (SU.86.86): 300 nM; Activity (HCT-116): Active; IC50 (PANC-1): 100 nM; IC50 (Panc02): 100 nM; IC50 (BXPC-3): 300 nM
O=C(Nc1cc(F)cc2cccnc12)c1cnc(N2CCC(F)(F)CC2)cn1 | 3700 nM | 
O=C(Nc1cc(F)cc2cccnc12)c1cnc(N2CC3CC2CS3(=O)=O)cn1 (configuration not stated) | 1400 nM | 
O=C(Nc1cc(F)cc2cccnc12)c1cnc(N2CCC(N3CCCC3)CC2)cn1 | 500 nM | 
Cc1cc(NC(=O)c2cnc(N3CCC4(CC3)CO[C@@H](C)[C@H]4N)cn2)c2ncccc2c1 | 1000 nM | half-life [2]: 11.7 min
O=C(Nc1cc(F)cc2cccnc12)c1cnc(N2CCNCC2)cn1 | 400 nM | half-life [2]: 1.8 min; half-life [3]: > 60 min
CC1CNCCCN1c1cnc(C(=O)Nc2cc(F)cc3cccnc23)cn1 (configuration not stated) | 1100 nM | 
O=C(Nc1cc(F)cc2cccnc12)c1cnc(N2CCOCC2)cn1 | 1000 nM | 
O=C(Nc1cc(F)cc2cccnc12)c1cnc(N2CC3C(C2)C3(F)F)cn1 (configuration not stated) | 5400 nM | 
O=C(Nc1cc(F)cc2cccnc12)c1cnc(N2CCn3cnnc3C2)cn1 | > 30000 nM | 
CC1(N)CN(c2cnc(C(=O)Nc3cc(F)cc4cccnc34)cn2)C1 | 2100 nM | 
NC1CCCN(c2cnc(C(=O)Nc3cc(F)cc4cccnc34)cn2)C1 (configuration not stated) | 1800 nM | 
C[C@@H]1CN(c2cnc(C(=O)Nc3cc(F)cc4cccnc34)cn2)CCN1 | 500 nM | 
Cc1cc(C(=O)Nc2ccc(N3CCN(C)CC3)nc2)c2ncccc2c1 | 21500 nM | 
NC1CCC2(CC1)CN(c1cnc(C(=O)Nc3cc(F)cc4cccnc34)cn1)C2 | 4700 nM | 
O=C(Nc1cc(F)cc2cccnc12)c1cnc(N2CCN3CCCC3C2)cn1 (configuration not stated) | 1700 nM | 
O=C(Nc1cc(F)cc2cccnc12)c1cnc(N2CCNC(C(F)(F)F)C2)cn1 (configuration not stated) | 800 nM | 
O=C(Nc1cccc2ccccc12)c1cnc(N2CCNCC2)cn1 | > 30000 nM | 
O=C(Nc1cc(F)cc2cccnc12)c1cnc(N2CC3CC2CN3)cn1 (configuration not stated) | 9400 nM | 

SMILES | IC50 (MIA PaCa-2 [1]) | other results
O=C(Nc1cc(F)cc2cccnc12)c1cnc(N2C[C@@H](O)CC2=O)cn1 | 4700 nM | 
CN(C)C/C=C/C(=O)N1CCN(c2cnc(C(=O)Nc3cc(F)cc4cccnc34)cn2)CC1 | 4400 nM | 
CN1CCN(c2cnc(C(=O)Nc3cccc4ccccc34)cn2)CC1 | > 30000 nM | 
N[C@@H]1CN(c2cnc(C(=O)Nc3cc(F)cc4cccnc34)cn2)CC12COC2 | 11600 nM | 
CN1CNC(=O)C12CCN(c1cnc(C(=O)Nc3cc(F)cc4cccnc34)cn1)CC2 | 2900 nM | 
O=C(Nc1cc(F)cc2cccnc12)c1cnc(N2CCNC3(CC3)C2)cn1 | 800 nM | 
C[C@@H]1CNCCN1c1cnc(C(=O)Nc2cc(F)cc3cccnc23)cn1 | 400 nM | 
CN1CC2CC1CN2c1cnc(C(=O)Nc2cc(F)cc3cccnc23)cn1 (configuration not stated) | 100 nM | Retention_time [6]: 6.19 min; Retention_time [7]: 6.23 min; Retention_time [8]: 6.44 min; Retention_time [9]: 6.23 min; Retention_time [10]: 6.22 min; half-life [2]: 10.5 min; Retention_time [11]: 6.22 min; half-life [3]: > 60 min
NC1CC2(C1)CN(c1cnc(C(=O)Nc3cc(F)cc4cccnc34)cn1)C2 | 5500 nM | 
O=C(Nc1cc(F)cc2cccnc12)c1cnc(N2CCC(O)C2)cn1 (configuration not stated) | 1000 nM | 
CN1CCN(c2cnc(C(=O)Nc3cc(F)cc4cccnc34)cn2)CC1 | 700 nM | 
Cc1cc(NC(=O)c2cnc(N3CCN(C(=O)C4CC4)CC3)cn2)c2ncccc2c1 | 1200 nM | 
CS(=O)(=O)N1CCN(c2cnc(C(=O)Nc3cc(F)cc4cccnc34)cn2)CC1 | 3300 nM | 
CC1(C)CN(c2cnc(C(=O)Nc3cc(F)cc4cccnc34)cn2)CCN1 | 300 nM | 
C=CC(=O)N1CCN(c2cnc(C(=O)Nc3cc(C)cc4cccnc34)cn2)CC1 | 900 nM | half-life [2]: 3 min
O=C(Nc1cc(F)cc2cccnc12)c1cnc(N2CCNC(F)C2)cn1 (configuration not stated) | 3400 nM | 
Cc1cc(NC(=O)CNCCN2CCN(C)CC2)c2ncccc2c1 | > 30000 nM | 
O=C(Nc1cc(F)cc2cccnc12)c1cnc(N2CC3CC2CO3)cn1 (configuration not stated) | 900 nM | 
Cc1cc(NC(=O)c2cnc(N3C[C@@H]4[C@@H](N)[C@@H]4C3)cn2)c2ncccc2c1 | 500 nM | half-life [2]: > 60 min
Cc1cc(NCc2cnc(N3CCNCC3)cn2)c2ncccc2c1 | 17600 nM | 
O=C(Nc1cc(F)cc2cccnc12)c1cnc(N2CCC(O)(C(F)(F)F)CC2)cn1 | 2100 nM | 
C[C@@H]1CN(c2cnc(C(=O)Nc3cc(F)cc4cccnc34)cn2)C[C@H](C)N1 | 300 nM | 
CN1C2CCC1CN(c1cnc(C(=O)Nc3cc(F)cc4cccnc34)cn1)C2 | 400 nM | half-life [2]: 13.5 min; half-life [3]: > 60 min
NC1CC2(CCN(c3cnc(C(=O)Nc4cc(F)cc5cccnc45)cn3)CC2)C1 | 3000 nM | 
NC1C2CCC1CN(c1cnc(C(=O)Nc3cc(F)cc4cccnc34)cn1)C2 (configuration not stated) | 800 nM | Activity [12]: Non-toxic; half-life [2]: > 60 min; half-life [3]: > 60 min
CCN(CC)C1CCN(c2cnc(C(=O)Nc3cc(F)cc4cccnc34)cn2)CC1 | 500 nM | 
Cc1cc(NC(=O)c2cnc(N3CCNCC3)cn2)c2ncccc2c1 | 900 nM | half-life [2]: 4 min
